What was measured:
[1] = tested on: luciferase reporter under the control of a methylated CMV promoter in leukemia KG-1 cells; assay: CMV-luc reexpression (luciferase reporter) in KG-1 cells; assay type: cell-based, human; conditions: 24 hour incubation, fold induction vs DMSO, mean ± standard error
Description: Aiming at identifying new DNMT inhibitors, plant extract samples were tested for their ability to reactivate gene expression upon use of an integrated luciferase reporter system under the control of a methylated CMV promoter in leukemia KG-1 cells which inhibits its expression (CMV-luc assay reported in following Table). […] The extract was fractionated by preparative HPLC. Identification of the active components was accomplished by HRMS and NMR spectroscopy. The pure compounds isolated from the extract through bio-guided fractionation are trilobine and bisbenzylisoquinoline analogue products. The active compounds were then further evaluated for their ability to inhibit DNMTs in vitro and DNA methylation in cancer cells.
KG-1 cells were stably transfected with the firefly luciferase reporter gene (luc+ from pGL3; Promega) under the control of the cytomegalovirus (CMV) promoter (from pEGFP-N1; Clontech Laboratories Inc.) partially methylated (50%). 20,000 cells per well were seeded in a 96-well plate. After 24 hour incubation in the presence of the test compound or solvant (DMSO), the induction of the promoter was measured by quantification of the luciferase signal with the Brite-lite assay system (PerkinElmer) according to the manufacturer's protocol. The luminescence was measured on an EnVision multilabel plate reader (PerkinElmer), and the data are expressed as the fold induction as compared with the DMSO control. The mean of three experiments and the standard error is reported.

[2] = target: T1, human C-terminal DNMT3A (a.a. 623-908) (Homo sapiens, UniProt Q9Y6K1); assay: hDNMT3A restriction-based fluorescence assay; assay type: biochemical; conditions: for inhibition at 10 µM / inhibition at 32 µM: read-out: hDNMT 3A inhibition, Inhibition (%); for EC50: brackets: 95% confidence interval, read-out: hDNMT 3A inhibition EC50
T1 construct: The human C-terminal DNMT3A (a.a. 623-908); made in house
T1 sequence (Q9Y6K1 627-912): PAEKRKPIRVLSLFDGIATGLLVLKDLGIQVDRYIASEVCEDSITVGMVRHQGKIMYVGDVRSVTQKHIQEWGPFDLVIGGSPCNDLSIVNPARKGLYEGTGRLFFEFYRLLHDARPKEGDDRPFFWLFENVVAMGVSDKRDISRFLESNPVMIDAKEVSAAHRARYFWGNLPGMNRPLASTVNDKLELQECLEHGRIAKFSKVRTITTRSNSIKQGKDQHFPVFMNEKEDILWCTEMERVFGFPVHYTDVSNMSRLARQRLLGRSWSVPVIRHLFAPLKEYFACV
Source text: hDNMT3A enzyme inhibition was adapted from the restriction-based fluorescence assay protocol as described in the literature (Ceccaldi et al. ChemBioChem 2011, 12, 1337-1345). Briefly, a 5′-labelled biotin oligonucleotide is hybridized to its complementary strand labelled with 6-carboxyfluorescein at the 3′-end into a 384 well microplate (black Optiplates; Perkin Elmer) pre-coated with avidin. The duplex contains a unique CpG site overlapping with a restriction site of a methylation sensitive restriction enzyme. The human C-terminal DNMT3A (a.a. 623-908), produced as described in the literature (Gros et al. Nucl. Acids Res. 2013, 41(19):e185), was added in each well (200 ng/well) and mixed with the chemical compounds at desired concentrations and freshly prepared AdoMet (20 μM final concentration) to start the reaction in a total volume of 50 μL. After 1 hour incubation at 37° C. each well were washed three times with PBS, Tween-20 0.05%, NaCl (500 mM) and three more times with PBST. Specific fluorescent signals were detected with the methylation-sensitive restriction enzyme HpyCH4IV (NEB) as described and measured on a Perkin Elmer Envision detector. The percentage of inhibition is reported. The formula used to calculate the percentage of inhibition is [(X−Y)/X]×100, where X is the signal determined in the absence of the inhibitor and Y is the signal obtained in the presence of the inhibitor. The concentration at which 50% of efficacy of inhibition is observed (EC50) was determined by analysis of a concentration range of the tested compound in triplicates. The non-linear regression fittings with sigmoidal dose-response (variable slope) were performed with GraphPad Prism 4.03 (GraphPad Software).

[3] = target: T2, His-DNMT1 (182 kDa, human) (Homo sapiens, UniProt P26358); assay: hDNMT1 assay ([methyl-3H] SAM Flashplate); assay type: biochemical; conditions: read-out: hDNMT1 percentage of inhibition
T2 construct: His; made in house
T2 sequence (P26358 whole entry): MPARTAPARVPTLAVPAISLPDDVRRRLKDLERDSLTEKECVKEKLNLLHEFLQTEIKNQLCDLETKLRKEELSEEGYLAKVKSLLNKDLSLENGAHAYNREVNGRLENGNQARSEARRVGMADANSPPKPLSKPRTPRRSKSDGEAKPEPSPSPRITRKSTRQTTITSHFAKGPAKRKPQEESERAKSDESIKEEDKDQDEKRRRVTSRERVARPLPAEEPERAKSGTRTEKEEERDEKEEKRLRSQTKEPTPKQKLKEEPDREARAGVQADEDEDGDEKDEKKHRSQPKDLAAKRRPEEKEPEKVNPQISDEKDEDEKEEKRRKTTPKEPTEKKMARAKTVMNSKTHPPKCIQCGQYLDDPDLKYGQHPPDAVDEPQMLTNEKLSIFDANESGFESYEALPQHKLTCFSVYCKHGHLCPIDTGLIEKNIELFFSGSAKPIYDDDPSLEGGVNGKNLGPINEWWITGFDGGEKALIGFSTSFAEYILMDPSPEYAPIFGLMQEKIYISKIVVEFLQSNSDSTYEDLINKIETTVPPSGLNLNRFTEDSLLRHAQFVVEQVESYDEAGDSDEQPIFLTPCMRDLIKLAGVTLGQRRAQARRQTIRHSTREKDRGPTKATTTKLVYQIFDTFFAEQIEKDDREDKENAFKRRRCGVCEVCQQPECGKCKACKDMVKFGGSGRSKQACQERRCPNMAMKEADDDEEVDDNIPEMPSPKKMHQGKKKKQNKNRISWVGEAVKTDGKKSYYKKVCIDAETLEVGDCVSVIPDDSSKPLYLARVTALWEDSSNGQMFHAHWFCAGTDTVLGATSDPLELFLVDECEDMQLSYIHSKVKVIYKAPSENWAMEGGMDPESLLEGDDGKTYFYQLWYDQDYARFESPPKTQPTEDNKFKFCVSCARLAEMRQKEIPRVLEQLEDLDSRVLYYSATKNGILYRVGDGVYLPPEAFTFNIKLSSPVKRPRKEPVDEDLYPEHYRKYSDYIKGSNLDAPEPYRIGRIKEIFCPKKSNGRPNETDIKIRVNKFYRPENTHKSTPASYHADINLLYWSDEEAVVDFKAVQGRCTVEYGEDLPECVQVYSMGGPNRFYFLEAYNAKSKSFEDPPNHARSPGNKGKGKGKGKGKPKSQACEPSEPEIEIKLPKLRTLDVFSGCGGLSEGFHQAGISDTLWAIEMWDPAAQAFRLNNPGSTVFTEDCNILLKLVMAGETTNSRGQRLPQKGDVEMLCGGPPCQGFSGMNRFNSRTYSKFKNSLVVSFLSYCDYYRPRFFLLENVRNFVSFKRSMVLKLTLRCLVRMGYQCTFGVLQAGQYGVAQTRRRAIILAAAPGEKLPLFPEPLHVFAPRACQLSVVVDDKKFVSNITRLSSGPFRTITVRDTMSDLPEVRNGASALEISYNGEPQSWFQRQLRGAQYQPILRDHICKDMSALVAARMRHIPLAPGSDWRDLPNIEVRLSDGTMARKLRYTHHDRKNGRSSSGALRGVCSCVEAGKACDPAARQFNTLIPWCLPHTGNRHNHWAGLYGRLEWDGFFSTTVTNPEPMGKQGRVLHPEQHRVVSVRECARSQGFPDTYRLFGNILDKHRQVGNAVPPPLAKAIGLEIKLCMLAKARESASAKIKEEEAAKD
Description: His-DNMT1 (182 kDa, human) was cloned, expressed and purified as described in the literature (Halby et al. ChemBioChem 2012, 13, 157-165). The reaction was performed in a […] total reaction volume in low volume NBS™ 384-well microplates (Corning), containing the tested compound (up to 1% DMSO), 1 μM of a SAM/[methyl-^3H] SAM (3 TBq/mmol, PerkinElmer) mix in a ratio of 3-to-1 (isotopic dilution 1*:3), 0.3 μM of biotinylated hemimethylated DNA duplex (5′-GATmCGCmCGATGmCGmCGAATmCGmCGATmCGATGmCGAT-3′ and BIOT-5′-[…]-3′), and 90 nM of DNMT1 in methylation buffer (20 mM HEPES pH 7.2, 1 mM EDTA, 50 mM KCl, 25 μg/mL BSA). The reaction was incubated at 37° C. for 2 hours. 8 μL, are then transferred into a streptavidin 96-well scintillant coated Flashplate™ (PerkinElmer) containing 190 μL of 20 μM SAH in 50 mM Tris-HCl pH 7.4. The Flashplate™ was agitated at room temperature for 1 hour and read in 200 μL of 50 mM Tris-HCl pH 7.4 on TopCount NXT (PerkinElmer). The percentage of inhibition is reported. The formula used to calculate the percentage of inhibition is [(X−Y)/X]×100, where X is the signal determined in the absence of the inhibitor and Y is the signal obtained in the presence of the inhibitor.

| SMILES | Reactivation fold of luciferase gene reporter in KG-1 CMV-Luc ([1]; 0.1 μM) [fold] | Reactivation fold of luciferase gene reporter in KG-1 CMV-Luc ([1]; 0.32 μM) [fold] | Reactivation fold of luciferase gene reporter in KG-1 CMV-Luc ([1]; 0.5 μM) [fold] | Reactivation fold of luciferase gene reporter in KG-1 CMV-Luc ([1]; 1 μM) [fold] | Reactivation fold of luciferase gene reporter in KG-1 CMV-Luc ([1]; 3.2 μM) [fold] | Reactivation fold of luciferase gene reporter in KG-1 CMV-Luc ([1]; 5 μM) [fold] | Reactivation fold of luciferase gene reporter in KG-1 CMV-Luc ([1]; 10 μM) | inhibition at 10 µM [2] [%] | inhibition at 32 µM [2] [%] | inhibition at 32 µM [3] [%] | EC50 [2] [µM] |
| --- | --- | --- | --- | --- | --- | --- | --- | --- | --- | --- | --- |
| COc1cc2c3c4c1Oc1cc5c(cc1O4)[C@H](Cc1ccc(O)c(c1)Oc1ccc(cc1)C[C@@H]3NCC2)N(C)CC5 [Compound 5, 2′-Norcocsuline] | 1.0 ± 0.2 | 2.3 ± 0.7 | 2.1 ± 0.6 | 2.6 ± 1.6 | 3.9 ± 0.4 | 5.1 ± 0.1 | cyt. tox. | 73 | 88 |  |  |
| COc1ccc2cc1Oc1ccc(cc1)C[C@@H]1NCCc3cc(OC)c4c(c31)Oc1cc3c(cc1O4)CCN[C@H]3C2 [Compound 7, Nortrilobine] | 1.1 ± 0.2 | 1.7 ± 0.5 | 1.9 ± 1.3 | 2.6 ± 1.8 | 5.4 ± 2.6 | 12.3 ± 1.2 | cyt. tox.. | 83 | 94 | 99 |  |
| COc1cc2c3c4c1Oc1cc5c(cc1O4)[C@H](Cc1ccc(O)c(c1)Oc1ccc(cc1)C[C@@H]3N(C)CC2)NCC5 [Compound 6, Cocsoline] |  |  |  |  |  |  |  | 37 | 91 |  | > 10 |
| COc1ccc2cc1Oc1ccc(cc1)C[C@H]1c3c(cc(OC)c4c3Oc3cc5c(cc3O4)CCN=C5C2)CCN1C [Compound 9, 1,2-Dehydrotelobine] |  |  |  |  |  |  |  | 37 | 63 |  | > 10 |
| COc1ccc2cc1Oc1ccc(cc1)C[C@H]1c3c(cc(OC)c4c3Oc3cc5c(cc3O4)CCN(C)[C@H]5C2)CCN1C [Compound 2, Isotrilobine] | 1.0 ± 0.1 | 2.4 ± 1.4 | 2.8 ± 0.8 | 3.6 ± 2.9 | 2.4 ± 0.7 | 3.1 ± 0.6 | 6.1 ± 0.5 fold | 56 | 76 |  |  |
| COc1cc2c3c4c1Oc1cc5c(cc1O4)C(=NCC5)Cc1ccc(O)c(c1)Oc1ccc(cc1)C[C@@H]3N(C)CC2 [Compound 8, 1,2-Dehydroapateline] |  |  |  |  |  |  |  | 41 | 68 |  | > 10 |
| COc1ccc2cc1Oc1ccc(cc1)C[C@H]1c3c(cc(OC)c4c3Oc3cc5c(cc3O4)CCN[C@H]5C2)CCN1C [Compound 3, O-Methylcocsoline] |  |  |  |  |  |  |  | 95 | 100 |  |  |
| COc1cc2c3c4c1Oc1cc5c(cc1O4)[C@H](Cc1ccc(O)c(c1)Oc1ccc(cc1)C[C@@H]3N(C)CC2)N(C)CC5 [Compound 4, Cocsuline] |  |  |  |  |  |  |  | 23 | 66 |  | > 10 |

Reference: patent publication US10517863B2, “Trilobine and its natural analogs for use as a drug” (PIERRE FABRE MEDICAMENT, priority 2015, dated 2019)
